# Measured values: the NIST ThermoML archive (doi:10.1021/je3005408)
# ± gives the expanded uncertainty stated by the source.
# Details: Liquid, Ebulliometric method (Recirculating still)
vapor or sublimation pressure (317.95 K) [kPa],vapor or sublimation pressure (336.85 K) [kPa],vapor or sublimation pressure (349.15 K) [kPa],Compound,vapor or sublimation pressure (361.65 K) [kPa],vapor or sublimation pressure (381.35 K) [kPa],vapor or sublimation pressure (394.25 K) [kPa]
,,,CCCCOC(C)=O [butyl ethanoate],29.77 ± 0.34,58.85 ± 0.79,87.65 ± 1.3
29.77 ± 0.34,58.85 ± 0.77,87.65 ± 1.2,C1CCCCC1 [cyclohexane],,,
